In publication PMC4129108, “The natural triterpene 3β,6β,16β-trihydroxy-lup-20(29)-ene obtained from the flowers of Combretum leprosum induces apoptosis in MCF-7 breast cancer cells” (BMC Complementary and Alternative Medicine, 2014):
Values after ≈ are worked out from the molar mass of the structure shown.

Key:
Assay type in all cases: cell-based, human
[1] = tested on: MCF-7 cells; assay: Apoptosis by flow cytometry (Annexin V-PE/7-AAD); details: MCF-7, 24 h
Method: (§1) Cells (2 × 10^5 cells/mL) were seeded on 6-well tissue culture plates, and grown for 1 day up to 70–80% confluence before treatment with the test substance. The TTHL was added to medium with FBS to obtain the different concentrations, and cells were treated at 37°C for 24 h in humidified atmosphere containing 5% CO2.
Annexin V-PE was used in conjunction with a vital dye, 7-AAD, to distinguish apoptotic (Annexin V-PE positive, 7-AAD negative) from necrotic (Annexin V-PE positive, 7-AAD positive) cells. After treatment, cells were trypsinized, collected and resuspended in 40 μL of binding buffer with 2 μL Annexin V-PE. Cells were incubated for 15 min in the dark at room temperature. After incubation, 160 μL of binding buffer and 2 μL of 7-AAD were added. Cells were incubated for 5 min and additional 200 μL of binding buffer were added. Before analysis, cells were filtered through a cell strainer cap fitted to a polystyrene round bottom flow cytometric tube. Data were collected and analyzed by a FACS Calibur flow cytometer with CellQuest software, in a total of 10,000 events per sample; fluorescence was measured and the percentage of viable, early apoptotic, late apoptotic and necrotic cells was determined.

[2] = tested on: HCT116 cell (colorectal carcinoma); assay: XTT cell viability assay, HCT116; details: for IC50: Homo sapiens, HCT-116, XTT
Method: The human cell lines MCF-7 (breast adenocarcinoma), HepG2 (hepatoma), T24 (bladder cancer), CACO-2 (colorectal adenocarcinoma) and MRC5 (lung normal fibroblast) were obtained from the Rio de Janeiro Cell Bank (Rio de Janeiro, RJ, Brazil). The HCT116 cell (colorectal carcinoma), and HT29 cell (colorectal adenocarcinoma) were kindly provided by Dr. Annette K. Larsen (Institut National de la Santé et de la Recherche Médicale - INSERM, Paris, França). All cell lines except MCF-7 were grown in DMEM supplemented with 10% or 20% (for CACO-2) FBS, 100 units.mL^-1 penicillin and 100 μg.mL^-1 streptomycin at 37°C in a humidified atmosphere of 5% CO2. MCF-7 cells were maintained in RPMI-1640 supplemented with 20% FBS at the same conditions described above.
The cytotoxic potential of the TTHL was evaluated by the XTT assay in human tumor cell lines as well as in MRC5 normal fibroblasts. Cells (1 × 10^4 cells) were seeded on 96-well plates in growth medium and incubated overnight. Afterwards, TTHL (0.5, 1.0, 2.5, 5.0, and 10 μg/mL) was added to each well and incubated for 24, 48, 72, and 120 h. Mitoxantrone, a cytostatic anthracenedione that intercalates in DNA and increases the incidence of double-strand breaks by stabilizing the cleavable complex of topoisomerase II and DNA, was used as positive control. At the end of each treatment, cell viability was assessed according to the manufacturer’s instructions. Briefly, after discarding the medium, 1 mL of XTT labeling mixture was added to the cells and incubated for 2 h at 37°C. Absorbance was measured with a SpectraMax reader (Bio-Rad, USA) at a test wavelength of 492 nm (A492) and a reference wavelength of 690 nm (A690). The final result corresponds to A492-A690. The absorbance of negative control cells was set as 100% viability, and the values for treated cells were calculated as a percentage of the control.
The IC20, IC50, and IC80 values and their 95% confidence intervals (CI 95%) were obtained by nonlinear regression using GraphPad Prism v5 program (Intuitive Software for Science, San Diego, CA, USA). Selective index (SI) was calculated by IC50 in MRC5 cells/IC50 in tumoral cells. All experiments were independently repeated at least three times, with triplicate samples for each treatment. Results are expressed as means ± standard deviation (SD). Data were analyzed by one-way analysis of variance (ANOVA), and means were compared using Tukey test, with P ≤ 0.05 considered as statistically significant.

[3] = tested on: MCF-7 cells; assay: Alkaline comet assay; details: MCF-7, 24 h
Method: as §1
The alkaline comet assay was performed as previously described. Briefly, 10 μL of cell suspension (1 × 10^4 cells) treated with TTHL were mixed with 90 μL LMP agarose, spread on a normal agarose precoated microscope slide, and placed at 4°C for 5 min to allow for solidification. Cells were lysed in high concentration of salt and detergent (2.5 M NaCl, 100 mM Na2EDTA, 10 mM Tris with 1% Triton X-100 and 10% DMSO freshly added) for 2 h. Slides were removed from lysing solution and washed three times with PBS. Subsequently, cells were exposed to alkali conditions (300 mM NaOH/1 mM Na2EDTA, pH >13, 30 min, 4°C) to allow DNA unwinding and expression of alkali-labile sites. Electrophoresis was conducted for 25 min at 25 V and 300 mA ([…]). After electrophoresis, the slides were neutralized and silver stained. One hundred cells were scored visually according to the tail length and the amount of DNA present in the tail. Each comet was given an arbitrary value of 0–4 (0, undamaged; 4, maximally damaged), as described by Collins et al.. Damage score was thus assigned to each sample and can range from 0 (completely undamaged: 100 cells × 0) to 400 (with maximum damage: 100 cells × 4). International guidelines and recommendations for the comet assay consider that visual scoring of comets is a well-validated evaluation method, as it is highly correlated with computer-based image analysis.

C=C(C)[C@@H]1CC[C@@]2(C)[C@H]1[C@H]1CC[C@@H]3[C@@]4(C)CC[C@H](O)C(C)(C)[C@@H]4[C@H](O)C[C@@]3(C)[C@]1(C)C[C@@H]2O [TTHL, 3β,6β,16β-trihydroxy-lup-20(29)-ene]
apoptosis induced (% of MCF-7 cells) ([1]; TTHL at IC50): 14%
percentage of necrotic cells (labeled with 7-AAD) ([1]; TTHL at IC50): less than 5%
cells in early apoptosis (labeled with annexin V-PE) ([1]; TTHL at IC80): approximately 55%
cells in late apoptosis (labeled with both annexin V-PE and 7-AAD) ([1]; TTHL at IC80): 15%
percentage of necrotic cells (labeled with 7-AAD) ([1]; TTHL at IC80): less than 5%
IC50 ([2]; HCT116, 24 h treatment): 7.05 ± 0.21 µg/mL (≈ 15.4 µM)
IC50 ([2]; HCT116, 48 h treatment): 5.87 ± 0.04 µg/mL (≈ 12.8 µM)
IC50 ([2]; HCT116, 72 h treatment): 5.2 ± 0.28 µg/mL (≈ 11.3 µM)
IC50 ([2]; HCT116, 120 h treatment): 4.5 ± 0.29 µg/mL (≈ 9.81 µM)
Selectivity index (SI) ([2]; IC50 in MRC5 cells/IC50 in HCT116, 24 h): 1 X
Selectivity index (SI) ([2]; IC50 in MRC5 cells/IC50 in HCT116, 48 h): 1 X
Selectivity index (SI) ([2]; IC50 in MRC5 cells/IC50 in HCT116, 72 h): 1 X
Selectivity index (SI) ([2]; IC50 in MRC5 cells/IC50 in HCT116, 120 h): 1.5 X
DNA damage (alkaline comet assay) ([3]; TTHL at IC20): does not generate DNA-strand breaks
DNA damage (alkaline comet assay) ([3]; TTHL at IC50): induces signifcant DNA damage
DNA damage (alkaline comet assay) ([3]; TTHL at IC80): induces signifcant DNA damage
